pKd: −log10 of the molar value. Some results are limits rather than exact numbers.

This is an account of results in patent US20230357233A1, “HETEROARYL COMPOUNDS, PREPARATION METHODS AND USES THEREOF” (INVENTISBIO CO., LTD., priority 2020, published 2023).

The target of one assay is Ba/F3_KRAS^G12D cells (Homo sapiens, UniProt P01116, G12D, cells depend on it). In words: Ba/F3 KRAS^G12D cell proliferation assay (cell-titer Glo). It counts as cell-based. The note with it: cell growth inhibition, treated with the compounds for 3 days, read-out: BaF3_KRAS^G12D IC50. As to the method:
Cells were seeded at a density of 5×10^3 per well into 96-well plate and incubated overnight. Serial diluted compounds were added to each well. Cells were treated with the compounds for 3 days, after which cell-titer Glo reagent (Promega #G7572) was used to assess cell proliferation. The luminescence signal was then collected on Tecan Spark plate reader. […] Cell growth inhibition of IC50 is calculated with the equation of Y=Bottom+(Top−Bottom)/(1+10^((LogIC50−X)*HillSlope))

Assay [1] has as its target recombinant human KRAS^G12D protein (Homo sapiens, UniProt P01116, G12D). In words: Temperature-dependent Fluorescence (TdF) KRAS^G12D protein binding assay. The note with it: 6 μM KRAS^G12D Protein, 10 μM compound, Sypro Orange; Kd calculated from fluorescent shift. How it is done: The TdF assay was conducted in the 96-well-based real-time fluorescence plate reader (ABI 7500 or Roche LightCycler 480). Fluorescent dye Sypro Orange (Sigma) was used to monitor the protein folding-unfolding transition. Protein-compound binding was gauged by the shift in the unfolding transition temperature (ΔTm) acquired with and without compound. […] The sample plate was heated from 30° C. to 95° C. with a thermal ramping rate of […], taking a fluorescence reading every 0.4° C. using a CY3 channel matching the excitation and emission wavelengths of Sypro Orange (λ ex 470 nm; λ em 570 nm). Binding affinity (Kd value) was calculated based on the degree of fluorescent shift of the protein with and without compound.

Ba/F3_KRAS^G12D cells, sequence (P01116 whole entry G12D): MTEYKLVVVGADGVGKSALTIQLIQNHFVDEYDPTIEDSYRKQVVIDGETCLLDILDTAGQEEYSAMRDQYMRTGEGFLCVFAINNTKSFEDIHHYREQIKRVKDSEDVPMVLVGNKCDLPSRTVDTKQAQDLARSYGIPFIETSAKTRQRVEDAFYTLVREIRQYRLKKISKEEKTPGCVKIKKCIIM
recombinant human KRAS^G12D protein, sequence (P01116 1-188 isoform P01116-2 G12D): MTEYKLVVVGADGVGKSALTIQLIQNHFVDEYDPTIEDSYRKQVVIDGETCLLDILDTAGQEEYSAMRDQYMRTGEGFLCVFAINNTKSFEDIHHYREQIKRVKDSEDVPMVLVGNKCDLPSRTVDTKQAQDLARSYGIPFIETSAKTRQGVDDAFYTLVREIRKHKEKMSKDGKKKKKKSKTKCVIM

As usually defined, the pKd is the Kd on a negative log10 scale, so that one unit is a factor of ten. In the case of `C[C@H]1CNCCN1c1nc(OCCN(C)C)c(-c2cccnc2C2CC2)c2nc(-c3ccccc3F)c(F)cc12` [Compound 1], the GI50 at Ba/F3_KRAS^G12D cells lay within 0.5 to 5 µM. The negative-log Kd (pKd) in assay [1] is less than 5.30.

In the case of `Clc1cc2c(N3CC4CCC(C3)N4)nc(OCC34CCCN3CCC4)nc2nc1-c1cccc2ccccc12` [Compound 2], the GI50 at Ba/F3_KRAS^G12D cells was more than 5 µM. Moreover, the pKd in assay [1] was less than 5.30.

Consider `Clc1cc2c(N3CCNCC3)nc(OCC34CCCN3CCC4)nc2nc1-c1cccc2ccccc12` [Compound 3], for which the GI50 at Ba/F3_KRAS^G12D cells is more than 5 µM. The negative logarithm of the Kd (pKd) in assay [1] is less than 5.30.

In the case of `CN(C)CCCOc1nc(N2CC3CCC(C2)N3)c2cc(Cl)c(-c3cccc4ccccc34)nc2n1` [Compound 4], on Ba/F3_KRAS^G12D cells, the GI50 is more than 5 µM. Also, in assay [1], the pKd is less than 5.30.

As to `Fc1cc2c(N3CCNCC3)nc(OCC34CCCN3CCC4)nc2nc1-c1cccc2cccc(Cl)c12` [Compound 5], the GI50 at Ba/F3_KRAS^G12D cells was more than 5 µM. The pKd in assay [1] was less than 5.30.

In the case of `Fc1c(-c2cccc3cccc(Cl)c23)ncc2c(N3CC4CCC(C3)N4)nc(OCC34CCCN3CCC4)nc12` [Compound 6], at Ba/F3_KRAS^G12D cells, the GI50 was less than 0.5 µM. Moreover, in assay [1], the negative-log Kd (pKd) was not below 6.30.

Turning to `Fc1cc2c(N3CC4CCC(C3)N4)nc(OCC34CCCN3CCC4)nc2nc1-c1cccc2cccc(Cl)c12` [Compound 7], the GI50 on Ba/F3_KRAS^G12D cells is more than 5 µM. Also, the pKd in assay [1] is less than 5.30.

For `CN1CCC[C@H]1COc1nc(N2CC3CCC(C2)N3)c2cc(F)c(-c3cccc4cccc(Cl)c34)nc2n1` [Compound 8], the GI50 at Ba/F3_KRAS^G12D cells fell in the range of 0.5 to 5 µM. The negative logarithm of the Kd (pKd) in assay [1] was less than 5.30.

As for `Fc1cc2c(N3C4CCC3CNC4)nc(OCC34CCCN3CCC4)nc2nc1-c1cccc2cccc(Cl)c12` [Compound 9], on Ba/F3_KRAS^G12D cells, the GI50 is more than 5 µM. Moreover, the negative logarithm of the Kd (pKd) in assay [1] is less than 5.30.

For the molecule `Oc1cc(-c2nc3nc(OCC45CCCN4CCC5)nc(N4CC5CCC(C4)N5)c3cc2Cl)c2ccccc2c1` [Compound 10], the GI50 on Ba/F3_KRAS^G12D cells was more than 5 µM. Moreover, in assay [1], the pKd is less than 5.30.

Regarding `Nc1cccc(F)c1-c1nc2nc(OCC34CCCN3CCC4)nc(N3CC4CCC(C3)N4)c2cc1Cl` [Compound 11], on Ba/F3_KRAS^G12D cells, the GI50 was more than 5 µM. Moreover, the pKd in assay [1] is less than 5.30.

For `Oc1cc(-c2ncc3c(N4CC5CCC(C4)N5)nc(OCC45CCCN4CCC5)nc3c2F)c2ccccc2c1` [Compound 12], the GI50 at Ba/F3_KRAS^G12D cells is 0.5 to 5 µM. Besides, the pKd in assay [1] is not below 6.30.

With `C[C@H]1CNCCN1c1nc(OCCN(C)C)cc2nc(-c3ccccc3F)c(F)cc12` [Compound 13], the GI50 at Ba/F3_KRAS^G12D cells was 0.5 to 5 µM. Also, in assay [1], the pKd is less than 5.30.

For `Fc1cc2c(N3CC4CCC(C3)N4)nc(OCC34CCCN3CCC4)cc2nc1-c1cccc2ccccc12` [Compound 14], at Ba/F3_KRAS^G12D cells, the GI50 was 0.5 to 5 µM. Also, in assay [1], the pKd was less than 5.30.

In the case of `CN(C)CCCOc1nc(N2CC3CCC(C2)N3)c2cc(F)c(-c3cccc4cccc(Cl)c34)nc2n1` [Compound 15], on Ba/F3_KRAS^G12D cells, the GI50 was more than 5 µM. The pKd in assay [1] was less than 5.30.

For the molecule `Fc1ccccc1-c1nc2cc(OCC34CCCN3CCC4)nc(N3CC4CCC(C3)N4)c2cc1F` [Compound 16], on Ba/F3_KRAS^G12D cells, the GI50 lay in the range of 0.5 to 5 µM. Also, in assay [1], the pKd is less than 5.30.

As to `CN(C)CCCn1c(=O)nc(N2CC3CCC(C2)N3)c2cnc(-c3cccc4cccc(Cl)c34)c(F)c21` [Compound 17], the GI50 on Ba/F3_KRAS^G12D cells is more than 5 µM. Further, the pKd in assay [1] was less than 5.30.

Take `c1ccc2c(-c3ncc4c(N5CCNCC5)nc(OCC56CCCN5CCC6)cc4n3)cccc2c1` [Compound 18]: at Ba/F3_KRAS^G12D cells, the GI50 lay in the range of 0.5 to 5 µM. Further, the pKd in assay [1] is less than 5.30.

As to `CN(C)CCCn1c(=O)nc(N2CC3CCC(C2)N3)c2cc(F)c(-c3cccc4cccc(Cl)c34)nc21` [Compound 19], the GI50 on Ba/F3_KRAS^G12D cells was more than 5 µM. In addition, the negative-log Kd (pKd) in assay [1] is less than 5.30.

For `CN(C)CCOc1nc(N2C3CCC2CNC3)c2cc(F)c(-c3ccccc3F)nc2c1-c1cccnc1C1CC1` [Compound 20], the GI50 at Ba/F3_KRAS^G12D cells is 0.5 to 5 µM. In assay [1], the pKd was less than 5.30.

With `c1ccc2c(-c3ncc4c(N5CC6CCC(C5)N6)nc(OCC56CCCN5CCC6)cc4n3)cccc2c1` [Compound 21], the GI50 on Ba/F3_KRAS^G12D cells was in the range of 0.5 to 5 µM. For the same molecule, the pKd in assay [1] was less than 5.30.

For `Nc1cccc(F)c1-c1ncc2c(N3CCNCC3)nc(OCC34CCCN3CCC4)cc2n1` [Compound 22], at Ba/F3_KRAS^G12D cells, the GI50 is more than 5 µM. The pKd in assay [1] was less than 5.30.

Consider `CN(C)CCCOc1cc2nc(-c3cccc4ccccc34)ncc2c(N2CC3CCC(C2)N3)n1` [Compound 23], for which, at Ba/F3_KRAS^G12D cells, the GI50 lay in the range of 0.5 to 5 µM. In addition, the negative logarithm of the Kd (pKd) in assay [1] is less than 5.30.

Consider `CN(C)CCOc1nc(N2CCNCC2)c2cc(F)c(-c3ccccc3F)nc2c1-c1cccnc1C1CC1` [Compound 24], for which, on Ba/F3_KRAS^G12D cells, the GI50 is 0.5 to 5 µM. The pKd in assay [1] is less than 5.30.

Take `CN(C)CCCOc1nc(N2CC3CCC(C2)N3)c2cnc(-c3cccc4ccccc34)nc2c1Cl` [Compound 25]: on Ba/F3_KRAS^G12D cells, the GI50 lay in the range of 0.5 to 5 µM. Besides, the pKd in assay [1] is less than 5.30.

In the case of `Nc1cccc(F)c1-c1ncc2c(N3CC4CCC(C3)N4)nc(OCC34CCCN3CCC4)cc2n1` [Compound 26], the GI50 at Ba/F3_KRAS^G12D cells is more than 5 µM. For the same molecule, the pKd in assay [1] was less than 5.30.

Regarding `CN(C)CCOc1nc(N2CC3CCC(C2)N3)c2cc(F)c(-c3ccccc3F)nc2c1-c1cccnc1C1CC1` [Compound 27], the GI50 at Ba/F3_KRAS^G12D cells is 0.5 to 5 µM. Also, the pKd in assay [1] was less than 5.30.

Take `Fc1ccccc1-c1nc2c(-c3cccnc3C3CC3)c(OCC34CCCN3CCC4)nc(N3CC4CCC(C3)N4)c2cc1F` [Compound 28]: on Ba/F3_KRAS^G12D cells, the GI50 was in the range of 0.5 to 5 µM. Also, the pKd in assay [1] was less than 5.30.

With `C[C@H]1CNCCN1c1nc(OCCN(C)C)c(-c2cccnc2C2CC2)c2nc(-c3cccc4ccccc34)c(F)cc12` [Compound 29], the GI50 at Ba/F3_KRAS^G12D cells was 0.5 to 5 µM. The negative-log Kd (pKd) in assay [1] was less than 5.30.

For `Fc1c(-c2cccc3cccc(Cl)c23)ncc2c(N3CC4CCC(C3)N4)nc(OC[C@@]34CCCN3C[C@H](F)C4)nc12` [Compound 30], the GI50 at Ba/F3_KRAS^G12D cells is less than 0.5 µM. Also, in assay [1], the negative logarithm of the Kd (pKd) is not below 6.30.

As to `Fc1c(-c2cccc3cccc(Cl)c23)nc(OCC23CCCN2CCC3)c2ccc(N3CCNCC3)nc12` [Compound 31], the GI50 at Ba/F3_KRAS^G12D cells lay within 0.5 to 5 µM. Moreover, the negative logarithm of the Kd (pKd) in assay [1] was less than 5.30.

With `Oc1cc(-c2ncc3c(N4CC5CCC(C4)N5)nc(OCC45CCCN4CCC5)nc3c2F)c2c(Cl)cccc2c1` [Compound 32], the GI50 on Ba/F3_KRAS^G12D cells is less than 0.5 µM. Also, in assay [1], the negative logarithm of the Kd (pKd) is not below 6.30.

On to `CN1CCC[C@H]1Cn1c(=O)nc(N2CC3CCC(C2)N3)c2cnc(-c3cccc4cccc(Cl)c34)c(F)c21` [Compound 33], for which, at Ba/F3_KRAS^G12D cells, the GI50 was more than 5 µM. Further, the pKd in assay [1] was less than 5.30.

With `Oc1cc(-c2nc3cc(OCC45CCCN4CCC5)nc(N4CC5CCC(C4)N5)c3cc2Cl)c2c(Cl)cccc2c1` [Compound 34], the GI50 at Ba/F3_KRAS^G12D cells was more than 5 µM. Also, in assay [1], the negative-log Kd (pKd) was less than 5.30.

Take `CN1CCC[C@H]1Cn1c(=O)nc(N2CCNCC2)c2cnc(-c3cccc4cccc(Cl)c34)c(F)c21` [Compound 35]: the GI50 at Ba/F3_KRAS^G12D cells was more than 5 µM. Further, the negative-log Kd (pKd) in assay [1] is less than 5.30.

With `Oc1cc(-c2ncc3c(N4CC5CCC(C4)N5)nc(OC[C@@]45CCCN4C[C@H](F)C5)nc3c2F)c2c(Cl)cccc2c1` [Compound 36], at Ba/F3_KRAS^G12D cells, the GI50 was less than 0.5 µM. Besides, the negative logarithm of the Kd (pKd) in assay [1] is not below 6.30.

As for `Nc1cccc(F)c1-c1nc2cc(OCC34CCCN3CCC4)nc(N3CC4CCC(C3)N4)c2cc1Cl` [Compound 37], the GI50 on Ba/F3_KRAS^G12D cells is more than 5 µM. Moreover, the negative logarithm of the Kd (pKd) in assay [1] was less than 5.30.

For the molecule `C#Cc1c(F)ccc2cccc(-c3nc(OC)c4c(N5CCNCC(F)(F)C5)nc(OC[C@]56CCCN5[C@@H](COC(=O)N(C)C)CC6)nc4c3F)c12` [Compound 247], the GI50 at Ba/F3_KRAS^G12D cells was in the range of 0.5 to 5 µM.
